Reference: PubChem BioAssay (NCI)
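GI50 = concentration required for 50% inhibition of growth. At the TGI there is no net growth.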

Legend:
Assay in all cases: NCI tumour cell line growth inhibition, 384-well format
HCT-15 colon = tested on: HCT-15 colon
SF-295 CNS = tested on: SF-295 CNS
SK-OV-3 ovarian = tested on: SK-OV-3 ovarian
SK-MEL-5 melanoma = tested on: SK-MEL-5 melanoma
NCI/ADR-RES ovarian = tested on: NCI/ADR-RES ovarian
M14 melanoma = tested on: M14 melanoma
UACC-257 melanoma = tested on: UACC-257 melanoma
HOP-92 NSCLC = tested on: HOP-92 NSCLC
IGROV1 ovarian = tested on: IGROV1 ovarian
NCI-H460 NSCLC = tested on: NCI-H460 NSCLC
BT-549 breast = tested on: BT-549 breast
RXF 393 renal = tested on: RXF 393 renal
OVCAR-3 ovarian = tested on: OVCAR-3 ovarian
K-562 leukemia = tested on: K-562 leukemia
SF-268 CNS = tested on: SF-268 CNS
MDA-MB-435 melanoma = tested on: MDA-MB-435 melanoma
CCRF-CEM leukemia = tested on: CCRF-CEM leukemia
MCF7 breast = tested on: MCF7 breast
NCI-H23 lung = tested on: NCI-H23 lung
EKVX NSCLC = tested on: EKVX NSCLC
NCI-H226 lung = tested on: NCI-H226 lung
786-0 renal = tested on: 786-0 renal
SK-MEL-28 melanoma = tested on: SK-MEL-28 melanoma
OVCAR-5 ovarian = tested on: OVCAR-5 ovarian
UO-31 renal = tested on: UO-31 renal
A498 renal = tested on: A498 renal
UACC-62 melanoma = tested on: UACC-62 melanoma
MDA-MB-468 breast = tested on: MDA-MB-468 breast
MOLT-4 leukemia = tested on: MOLT-4 leukemia
SN12C renal = tested on: SN12C renal
HOP-62 NSCLC = tested on: HOP-62 NSCLC
OVCAR-4 ovarian = tested on: OVCAR-4 ovarian
MDA-MB-231 breast = tested on: MDA-MB-231 breast
NCI-H322M lung = tested on: NCI-H322M lung
SW-620 colon = tested on: SW-620 colon
ACHN renal = tested on: ACHN renal
COLO 205 colon = tested on: COLO 205 colon
HCT-116 colon = tested on: HCT-116 colon
SF-539 CNS = tested on: SF-539 CNS
PC-3 prostate = tested on: PC-3 prostate
OVCAR-8 ovarian = tested on: OVCAR-8 ovarian
HCC-2998 colon = tested on: HCC-2998 colon
HS 578T breast = tested on: HS 578T breast
LOX IMVI melanoma = tested on: LOX IMVI melanoma
CAKI-1 renal = tested on: CAKI-1 renal
TK-10 renal = tested on: TK-10 renal
KM12 colon = tested on: KM12 colon
SNB-19 CNS = tested on: SNB-19 CNS
U251 glioblastoma = tested on: U251 glioblastoma
RPMI-8226 leukemia = tested on: RPMI-8226 leukemia
DU-145 prostate = tested on: DU-145 prostate
SNB-75 CNS = tested on: SNB-75 CNS
MALME-3M melanoma = tested on: MALME-3M melanoma
HT29 colon = tested on: HT29 colon

CCN(CCO)CCCOc1ccc2c(Nc3cc(CC(=O)Nc4cccc(F)c4)[nH]n3)ncnc2c1
GI50 (HCT-15 colon): > 100 µM | TGI (HCT-15 colon): > 100 µM | GI50 (SF-295 CNS): 13.8 µM | TGI (SF-295 CNS): 29.2 µM | GI50 (SK-OV-3 ovarian): 9.32 µM | TGI (SK-OV-3 ovarian): 21.4 µM | GI50 (SK-MEL-5 melanoma): 11.4 µM | TGI (SK-MEL-5 melanoma): 24.8 µM | GI50 (NCI/ADR-RES ovarian): > 100 µM | TGI (NCI/ADR-RES ovarian): > 100 µM | GI50 (M14 melanoma): 13.3 µM | TGI (M14 melanoma): 26.6 µM | GI50 (UACC-257 melanoma): 14.7 µM | TGI (UACC-257 melanoma): 27.9 µM | GI50 (HOP-92 NSCLC): 8.99 µM | TGI (HOP-92 NSCLC): 21.2 µM | GI50 (IGROV1 ovarian): 11.6 µM | TGI (IGROV1 ovarian): 24.9 µM | GI50 (NCI-H460 NSCLC): 0.0403 µM | TGI (NCI-H460 NSCLC): 16.9 µM | GI50 (BT-549 breast): 12 µM | TGI (BT-549 breast): 24.4 µM | GI50 (RXF 393 renal): 0.0465 µM | TGI (RXF 393 renal): 20.6 µM | GI50 (OVCAR-3 ovarian): 1.63 µM | TGI (OVCAR-3 ovarian): 14.7 µM | GI50 (K-562 leukemia): 10.1 µM | TGI (K-562 leukemia): 22.7 µM | GI50 (SF-268 CNS): < 0.01 µM | TGI (SF-268 CNS): 4.6 µM | GI50 (MDA-MB-435 melanoma): 13.4 µM | TGI (MDA-MB-435 melanoma): 26.3 µM | GI50 (CCRF-CEM leukemia): < 0.01 µM | GI50 (MCF7 breast): 2.69 µM | TGI (MCF7 breast): 18.2 µM | GI50 (NCI-H23 lung): 11.8 µM | TGI (NCI-H23 lung): 25.1 µM | GI50 (EKVX NSCLC): 14 µM | TGI (EKVX NSCLC): 41.7 µM | GI50 (NCI-H226 lung): 14.4 µM | TGI (NCI-H226 lung): 36.4 µM | GI50 ([…]-0 renal): 16 µM | TGI (786-0 renal): 31.7 µM | GI50 (SK-MEL-28 melanoma): 15.5 µM | TGI (SK-MEL-28 melanoma): 29 µM | GI50 (OVCAR-5 ovarian): 18.1 µM | TGI (OVCAR-5 ovarian): 51.2 µM | GI50 (UO-31 renal): > 100 µM | TGI (UO-31 renal): > 100 µM | GI50 (A498 renal): 29.8 µM | TGI (A498 renal): > 100 µM | GI50 (UACC-62 melanoma): 13.9 µM | TGI (UACC-62 melanoma): 26.9 µM | GI50 (MDA-MB-468 breast): 0.0155 µM | TGI (MDA-MB-468 breast): 4.03 µM | GI50 (MOLT-4 leukemia): < 0.01 µM | GI50 (SN12C renal): 10.8 µM | TGI (SN12C renal): 23.4 µM | GI50 (HOP-62 NSCLC): 11.7 µM | TGI (HOP-62 NSCLC): 24.1 µM | GI50 (OVCAR-4 ovarian): 12.2 µM | TGI (OVCAR-4 ovarian): 26.5 µM | GI50 (MDA-MB-231 breast): 12 µM | TGI (MDA-MB-231 breast): 24.5 µM | GI50 (NCI-H322M lung): 16.2 µM | TGI (NCI-H322M lung): 38.5 µM | GI50 (SW-620 colon): 13.7 µM | TGI (SW-620 colon): 28.9 µM | GI50 (ACHN renal): > 100 µM | TGI (ACHN renal): > 100 µM | GI50 (COLO 205 colon): 0.0236 µM | TGI (COLO 205 colon): 0.0915 µM | GI50 (HCT-116 colon): 8.43 µM | TGI (HCT-116 colon): 21.4 µM | GI50 (SF-539 CNS): 2.31 µM | TGI (SF-539 CNS): 19.1 µM | GI50 (PC-3 prostate): 15.1 µM | TGI (PC-3 prostate): 28.6 µM | GI50 (OVCAR-8 ovarian): 14.7 µM | TGI (OVCAR-8 ovarian): 28.9 µM | GI50 (HCC-2998 colon): 12.8 µM | TGI (HCC-2998 colon): 25.4 µM | GI50 (HS 578T breast): 0.0205 µM | TGI (HS 578T breast): 18.5 µM | GI50 (LOX IMVI melanoma): 10.2 µM | TGI (LOX IMVI melanoma): 21.8 µM | GI50 (CAKI-1 renal): 11.7 µM | TGI (CAKI-1 renal): 26.4 µM | GI50 (TK-10 renal): 32.5 µM | TGI (TK-10 renal): > 100 µM | GI50 (KM12 colon): 3.46 µM | TGI (KM12 colon): 14.6 µM | GI50 (SNB-19 CNS): 11.7 µM | TGI (SNB-19 CNS): 24.1 µM | GI50 (U251 glioblastoma): 12 µM | TGI (U251 glioblastoma): 24.4 µM | GI50 (RPMI-8226 leukemia): 7.83 µM | TGI (RPMI-8226 leukemia): 21.2 µM | GI50 (DU-145 prostate): 27.7 µM | TGI (DU-145 prostate): 92 µM | GI50 (SNB-75 CNS): 15.1 µM | TGI (SNB-75 CNS): 28.4 µM | GI50 (MALME-3M melanoma): 11.3 µM | TGI (MALME-3M melanoma): 23.4 µM | GI50 (HT29 colon): 13.2 µM | TGI (HT29 colon): 26.2 µM
